Key:
[1] = system: NHDF, normal fibroblast from human fetus; experiment: Collagen production by NHDF, Sircol Collagen Assay; type: cell-based; settings: 6 days; for Collagen production (μg/well), AA-2G addition: 50 μM AA-2G; for Collagen production (μg/well), AA-2G free: no AA-2G
Description: NDHF cells (commercialized by Kurabo Industries Ltd. Osaka, Japan, catalog No. “KF-4001”) were suspended in D-MEM supplemented with 10 (v/v) % FCS to give a concentration of 5×10^5 cells/ml, and the suspension was sown in 96-well microplate by 50 μl per well. […] After cultured at 37° C. for a day, the supernatant was removed and any one of the samples and D-MEM medium supplemented with 10 (v/v) % FCS containing 100 μM AA-2G (a final concentration of 50 μM) or D-MEM medium supplemented with 10 (v/v) % FCS not containing AA-2G were added by 100 μl per well, and cultured at 37° C. for 3 days in 5 (v/v) % CO2 atmosphere. […] After the culture supernatant was removed, 1 M acetate solution containing 1 mg/ml of pepsin (commercialized by SIGMA, Inc.) was added by 50 μl per well and the plate was shaken at room temperature for 4 hours with a plate mixer for pepsin digestion. The digest was collected in a 1.5 ml-tube by pipetting, admixed with 200 μl per tube of Dye Reagent of Sircol Collagen Assay Kit (commercialized by Biocolor Ltd.), and allowed to react at room temperature for 30 minutes by inversely mixing. The supernatant of the reaction mixture was completely removed bycentrifugation (4° C., 15,000 rpm, 10 minutes), […] dissolved in 50 μl of 1 N NaOH, the resulting supernatant was measured for its absorbance at 560 nm to 650 nm. […] According to the standard curve, the amount of collagen in the pepsin digest of the cells was calculated.

COX-2 = biological target: T1, COX-2 (Homo sapiens, UniProt P35354); experiment: COX Inhibitor Screening Assay Kit, COX-2; type: biochemical
T1 sequence (P35354 18-604): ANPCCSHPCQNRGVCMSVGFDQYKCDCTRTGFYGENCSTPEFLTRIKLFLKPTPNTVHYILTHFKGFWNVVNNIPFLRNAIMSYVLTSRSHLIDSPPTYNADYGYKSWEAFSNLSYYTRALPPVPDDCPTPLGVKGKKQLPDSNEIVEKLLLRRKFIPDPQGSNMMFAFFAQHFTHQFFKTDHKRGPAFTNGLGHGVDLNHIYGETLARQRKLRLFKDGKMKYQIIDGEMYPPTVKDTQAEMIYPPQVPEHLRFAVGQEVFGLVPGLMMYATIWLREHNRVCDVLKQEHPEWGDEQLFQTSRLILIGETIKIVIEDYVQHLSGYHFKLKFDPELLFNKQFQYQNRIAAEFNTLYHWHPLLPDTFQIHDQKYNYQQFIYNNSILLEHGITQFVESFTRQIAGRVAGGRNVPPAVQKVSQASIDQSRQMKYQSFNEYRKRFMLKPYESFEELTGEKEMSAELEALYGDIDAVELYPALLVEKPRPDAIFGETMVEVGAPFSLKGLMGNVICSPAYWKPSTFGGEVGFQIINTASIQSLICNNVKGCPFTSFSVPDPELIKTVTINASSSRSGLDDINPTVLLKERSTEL
Source text: Fifty percent inhibitory concentration (IC50) means the concentration of test sample necessary for inhibiting PGE2 synthesis by 50% compared to non-inhibitory control sample. It can be also determined by measuring the amount of PGE2 produced by adding test samples to cells having cyclooxygenase activity. COX-1/COX-2 ratio means the ratio of […], and the higher the ratio is, the more specific to COX-2 the agent is.
To verify the results of Experiment 2, it was investigated that whether the activity of COXs, essential enzymes for PGE2 synthesis system, can be inhibited. […] An experimental system without the test samples was set as control. The residual activity of COX-1 or COX-2 was determined as relative activity versus control.

RAW264.7 cells = experiment: Macrophage growth, living cell count; type: cell-based, mouse; settings: 2 days, relative level versus control
Source text: RAW264.7 cells, a murine macrophage cell strain, were suspended in PRMI1640 medium supplied with 10% (v/v) fetal calf serum (hereinafter abbreviated as “FCS”) to give a cell suspension with a cell concentration of 1×10^6 cells/ml. […] The experimental system without the test samples described above was set as control. […] NO production, PGE2 production and macrophage growth are indicated as relative levels versus controls.

[2] = read-out: residual activity of COX-2

**Q.** Which “Collagen production (μg/well), AA-2G addition” value ([1]; QA 0.125 μM) does the source give for `Nc1cc2nc3ccccc3oc-2cc1=O` [2-Aminophenoxazine-3-one, 2-aminophenoxazine-3-one] here?
**A.** Its value is 1.32 ± 0.45 μg/well.

**Q.** And the “Collagen production (μg/well), AA-2G free” value ([1]; QA 0.125 μM)?
**A.** The value was 0.66 ± 0.05 μg/well.

**Q.** What about the “Collagen production (μg/well), AA-2G addition” value ([1]; QA 0.25 μM) of the same compound?
**A.** The value was 1.64 ± 0.21 μg/well.

**Q.** And the “Collagen production (μg/well), AA-2G free” value ([1]; QA 0.25 μM)?
**A.** Its value is 0.64 ± 0.06 μg/well.

**Q.** What about the “Collagen production (μg/well), AA-2G addition” value ([1]; QA 0.5 μM) of the same compound?
**A.** Its value is 1.57 ± 0.18 μg/well.

**Q.** What about the “Collagen production (μg/well), AA-2G free” value ([1]; QA 0.5 μM) of the same compound?
**A.** Its value is 0.63 ± 0.07 μg/well.

**Q.** And the “Collagen production (μg/well), AA-2G addition” value ([1]; QA 1.0 μM)?
**A.** Its value is 1.03 ± 0.22 μg/well.

**Q.** What about the “Collagen production (μg/well), AA-2G free” value ([1]; QA 1.0 μM) of the same compound?
**A.** The value was 0.71 ± 0.10 μg/well.

**Q.** What about the “Collagen production (μg/well), AA-2G addition” value ([1]; QA 2.0 μM) of the same compound?
**A.** Its value is 0.58 ± 0.06 μg/well.

**Q.** And the “Collagen production (μg/well), AA-2G free” value ([1]; QA 2.0 μM)?
**A.** Its value is 0.70 ± 0.16 μg/well.

**Q.** And the IC50 (COX-2; PGE2 from arachidonic acid, read-out: IC50 COX-2)?
**A.** Its IC50 is 4.83 µM.

**Q.** What about the COX-1/COX-2 ratio (COX-2; ratio of IC50 values of Table 2) of the same compound?
**A.** Its COX-1/COX-2 ratio is “about 1.3”.

**Q.** And the remaining activity at 1.9 µM (COX-2; [2])?
**A.** Its remaining activity at 1.9 µM is 95%.

**Q.** And the remaining activity at 3.8 µM (COX-2; [2])?
**A.** The remaining activity at 3.8 µM was 37%.

**Q.** What about the remaining activity at 7.6 µM (COX-2; [2]) of the same compound?
**A.** The remaining activity at 7.6 µM was 29%.

**Q.** What about the “Macrophage growth (%)” value (RAW264.7 cells; 0.16 μM) of the same compound?
**A.** The value was 117%.

**Q.** What about the “Macrophage growth (%)” value (RAW264.7 cells; 0.31 μM) of the same compound?
**A.** Its value is 121%.

**Q.** And the “Macrophage growth (%)” value (RAW264.7 cells; 0.63 μM)?
**A.** Its value is 127%.

**Q.** And the “Macrophage growth (%)” value (RAW264.7 cells; 1.3 μM)?
**A.** Its value is 127%.

**Q.** What about the “Macrophage growth (%)” value (RAW264.7 cells; 2.5 μM) of the same compound?
**A.** The value was 119%.

**Q.** And the “Macrophage growth (%)” value (RAW264.7 cells; 5.0 μM)?
**A.** The value was 112%.

**Q.** And the “Macrophage growth (%)” value (RAW264.7 cells; 10 μM)?
**A.** The value was 86%.
